Measurements published in patent US6878536B2, “Phosphoriboxyl-pyrophosphate synthetase polypeptide” (BASF, priority 1997, dated 2005).

System: glutamine-PRPP amidotransferase from Ashbya gossypii
Test: Activity of glutamine-PRPP amidotransferase (Messenger and Zalkin method)
Type: biochemical
Settings: wild-type enzyme, FIG. 1
Excerpt: The glutamine-PRPP amidotransferase from Ashbya gossypii is likewise inhibited by AMP or GMP (see Figure). The activity of glutamine-phosphoribosyl-pyrophosphate amidotransferase from Ashbya gossypii can be measured as described in Messenger and Zalkin (1979) J. Biol. Chem. 254, pages 3382-3392.
This can be shown, for example, by expressing the enzymes in Ashbya gossypii (see Example 11).
Measurement of the activity of Gln-PRPP amidotransferase from A. gossypii and of modified forms of the enzyme as a function of the concentration of adenosine 5′-monophosphate (AMP) and guanosine 5′-monophosphate (GMP).

Compound | inhibition of glutamine-PRPP amidotransferase from Ashbya gossypii
Nc1ncnc2c1ncn2[C@@H]1O[C@H](COP(=O)(O)O)[C@@H](O)[C@H]1O [AMP, adenosine 5′-monophosphate] | inhibited
Nc1nc2c(ncn2[C@@H]2O[C@H](COP(=O)(O)O)[C@@H](O)[C@H]2O)c(=O)[nH]1 [GMP, guanosine 5′-monophosphate] | inhibited
